According to patent publication US20100292229A1, “TRYPHOSTIN-ANALOGS FOR THE TREATMENT OF CELL PROLIFERATIVE DISEASES” (The Board of Regents of the University of Texas System, priority 2006, published 2010):

What was measured:
[1] = molecular target: T1, nucleophosmin (NPM) (Homo sapiens, UniProt P06748); test: Affinity recovery of Degrasyn interactive proteins with streptavidin beads; type: binding; details: MM-1 or K562 cell lysates
T1 construct: endogenous in cells; host or cells: MM-1 and K562 cell lysates
T1 sequence (P06748 whole entry): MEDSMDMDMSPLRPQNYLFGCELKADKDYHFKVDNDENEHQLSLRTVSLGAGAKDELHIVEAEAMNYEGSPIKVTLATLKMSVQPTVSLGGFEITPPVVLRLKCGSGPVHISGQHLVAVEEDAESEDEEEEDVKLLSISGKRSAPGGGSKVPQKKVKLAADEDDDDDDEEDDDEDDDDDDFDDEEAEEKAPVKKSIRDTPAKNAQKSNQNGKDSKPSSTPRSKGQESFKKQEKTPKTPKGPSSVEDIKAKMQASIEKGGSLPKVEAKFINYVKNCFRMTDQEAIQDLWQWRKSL
Description: Biotinylated-Degrasyn (10 μM) was incubated with lysates from MM-1 cells (10 mg total protein) and interactive proteins were assessed by affinity recovery using Streptavidin-conjugated beads to bind biotinylated-Degrasyn. Free Degrasyn (10 μM) was incubated with biotinylated-Degrasyn in a parallel experiment to assist in identifying specific protein:Degrasyn interactions. Affinity complexes were washed and Streptavidin-Bio-Deg interaction proteins were assessed by disrupting protein complexes with SDS-sample buffer and resolving proteins by SDS-PAGE. The resolved proteins were detected by silver-staining the gel. Protein bands present in the biotinylated-Degrasyn sample that were absent in samples co-incubated with free Degrasyn were identified and cut from the gel. A 38 kDa protein band was prominent in this assessment and was subjected to in gel trypsinization and identification of HPLC resolved tryptic peptides by tandem mass spectroscopy analysis (David Hawke, Department of Molecular Pathology, M.D. Anderson Cancer Center). This analysis identified nucleophosmin (NPM) as a Degrasyn interactive protein.
To further assess the interaction between NPM and Degrasyn, biotinylated-Degrasyn/streptavidin beads were incubated with MM-1 (left) or K562 (right) cell lysates. In parallel, lysates were co-incubated with free Degrasyn to determine the specificity of the interaction with NPM. […]

[2] = molecular target: T2, c-myc (Homo sapiens, UniProt P01106); test: c-myc protein immunoblot in MM-1 cells; type: cell-based
T2 construct: endogenous in cells; host or cells: MM-1 cells
T2 sequence (P01106 16-454 limits assumed): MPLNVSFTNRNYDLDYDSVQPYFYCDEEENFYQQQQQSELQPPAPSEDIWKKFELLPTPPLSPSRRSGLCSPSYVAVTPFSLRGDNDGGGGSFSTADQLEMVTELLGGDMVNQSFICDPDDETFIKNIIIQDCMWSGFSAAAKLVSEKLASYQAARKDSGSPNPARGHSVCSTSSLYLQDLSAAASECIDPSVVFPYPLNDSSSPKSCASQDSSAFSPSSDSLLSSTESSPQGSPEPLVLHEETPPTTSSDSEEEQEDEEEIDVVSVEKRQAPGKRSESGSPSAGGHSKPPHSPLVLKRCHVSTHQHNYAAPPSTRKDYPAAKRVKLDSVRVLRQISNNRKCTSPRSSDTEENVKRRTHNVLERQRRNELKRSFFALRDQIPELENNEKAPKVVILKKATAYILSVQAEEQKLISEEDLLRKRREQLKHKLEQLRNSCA
Description: Top: MM-1 cells were incubated with 5 μM Degrasyn for the interval noted before cell lysates were prepared and subjected to immunoblotting for c-myc and actin as a protein loading control.
Middle: MM-1 cells were treated with the indicated concentration of Degrasyn for 1 h before lysates were immunoblotted for c-myc and actin.
Bottom: MM-1 cells were treated as indicated before extraction of total RNA (TRIzol). RNA was resolved by agarose electrophoresis, transferred to a membrane and hybridized with a c-myc probe to determine the level of c-myc RNA in each sample. The ethidium bromide stained gel was photographed and 28S RNA content was detected as a measure of RNA content in each lane.
MM-1 cells were pretreated with protease/proteosome inhibitors (LLnL; LLnM; E-64d; MG132; PS341; Chloroquine; Ammonium Chloride; Cycloheximide) for 2 h before the addition of 5 μM Degrasyn or vehicle alone (DMSO as indicated) for an additional 2 h. Cell lysates were prepared and equal protein aliquots were subjected to immunoblotting for c-myc, Max (a c-myc binding partner) or actin as a protein loading control.
Pictured: MM-1 cells were treated with biotinylated Degrasyn (Bio-Deg) or Degrasyn (at the indicated concentration) for 1 h before analyzing effects on c-myc as described in FIG. 15.
(§1) Western Blot analysis. Cells were harvested, washed twice in cold 1×PBS and lysed in modified RIPA lysis buffer (150 mM NaCl, 1% NP-40, 0.5% Na-deoxycholate [DOC], 0.1% Na-dodecyl sulfate [SDS], 50 mM Tris-HCl (pH 7.5), 1 mM EDTA, 1 mM NaF, 2 mM Na-vanadate, with protease inhibitors (1 mM PMSF, 1 mM benzamidine, 10 μg/ml aprotinin, 10 μg/ml leupeptin) on ice for 30 min. The lysed cells were centrifuged at 13,000 rpm for 30 min and the supernatant collected. The protein concentration of the cell lysate was determined by the Bradford Protein Assay. Fifty to 60 μg of protein were resolved in a 10% SDS-PAGE, and transferred to a PVDF membrane. Western blotting was performed using specific primary antibodies Peroxidase-conjugated affiniPure anti-Mouse Anti-Rabbit secondary antibodies (Jackson Immunoresearch Laboratories, West Grove, Pa.). The proteins were visualized with ECL Plus reagents (Amersham Biosciences).

[3] = tested on: c-myc and activated Stat3; test: c-myc, pY-Stat3, Stat3, p53, p-MAPK immunoblot in A375 melanoma cells; type: cell-based; details: A375, 2 h
Description: A375 melanoma cells were pretreated with Degrasyn at the concentration noted for 2 h before the addition of 10 ng/ml IL-6 for 15 min. Cell lysates were prepared and equal protein aliquots were resolved by SDS-PAGE and immunoblotted for c-myc, p53 (wild-type), activated Stat3 (pY-Stat3), Stat3 and activated Erk1/2 kinase (p-MAPK).
as §1

[4] = molecular target: T3, w/t BCR-ABL (Homo sapiens, UniProt P00519); test: pBCR-ABL and BCR-ABL immunoblot in BV-173 cells; type: cell-based; parameters: dose or concentration left out as unconfirmed; details: 1 h
T3 construct: BV-173, a lymphoid CML cell line expressing w/t BCR-ABL; endogenous in cells; host or cells: BV-173; the other entry of the earlier key: BCR (P11274, Breakpoint cluster region protein)
T3 sequence (P00519 with tags, fused parts or gaps): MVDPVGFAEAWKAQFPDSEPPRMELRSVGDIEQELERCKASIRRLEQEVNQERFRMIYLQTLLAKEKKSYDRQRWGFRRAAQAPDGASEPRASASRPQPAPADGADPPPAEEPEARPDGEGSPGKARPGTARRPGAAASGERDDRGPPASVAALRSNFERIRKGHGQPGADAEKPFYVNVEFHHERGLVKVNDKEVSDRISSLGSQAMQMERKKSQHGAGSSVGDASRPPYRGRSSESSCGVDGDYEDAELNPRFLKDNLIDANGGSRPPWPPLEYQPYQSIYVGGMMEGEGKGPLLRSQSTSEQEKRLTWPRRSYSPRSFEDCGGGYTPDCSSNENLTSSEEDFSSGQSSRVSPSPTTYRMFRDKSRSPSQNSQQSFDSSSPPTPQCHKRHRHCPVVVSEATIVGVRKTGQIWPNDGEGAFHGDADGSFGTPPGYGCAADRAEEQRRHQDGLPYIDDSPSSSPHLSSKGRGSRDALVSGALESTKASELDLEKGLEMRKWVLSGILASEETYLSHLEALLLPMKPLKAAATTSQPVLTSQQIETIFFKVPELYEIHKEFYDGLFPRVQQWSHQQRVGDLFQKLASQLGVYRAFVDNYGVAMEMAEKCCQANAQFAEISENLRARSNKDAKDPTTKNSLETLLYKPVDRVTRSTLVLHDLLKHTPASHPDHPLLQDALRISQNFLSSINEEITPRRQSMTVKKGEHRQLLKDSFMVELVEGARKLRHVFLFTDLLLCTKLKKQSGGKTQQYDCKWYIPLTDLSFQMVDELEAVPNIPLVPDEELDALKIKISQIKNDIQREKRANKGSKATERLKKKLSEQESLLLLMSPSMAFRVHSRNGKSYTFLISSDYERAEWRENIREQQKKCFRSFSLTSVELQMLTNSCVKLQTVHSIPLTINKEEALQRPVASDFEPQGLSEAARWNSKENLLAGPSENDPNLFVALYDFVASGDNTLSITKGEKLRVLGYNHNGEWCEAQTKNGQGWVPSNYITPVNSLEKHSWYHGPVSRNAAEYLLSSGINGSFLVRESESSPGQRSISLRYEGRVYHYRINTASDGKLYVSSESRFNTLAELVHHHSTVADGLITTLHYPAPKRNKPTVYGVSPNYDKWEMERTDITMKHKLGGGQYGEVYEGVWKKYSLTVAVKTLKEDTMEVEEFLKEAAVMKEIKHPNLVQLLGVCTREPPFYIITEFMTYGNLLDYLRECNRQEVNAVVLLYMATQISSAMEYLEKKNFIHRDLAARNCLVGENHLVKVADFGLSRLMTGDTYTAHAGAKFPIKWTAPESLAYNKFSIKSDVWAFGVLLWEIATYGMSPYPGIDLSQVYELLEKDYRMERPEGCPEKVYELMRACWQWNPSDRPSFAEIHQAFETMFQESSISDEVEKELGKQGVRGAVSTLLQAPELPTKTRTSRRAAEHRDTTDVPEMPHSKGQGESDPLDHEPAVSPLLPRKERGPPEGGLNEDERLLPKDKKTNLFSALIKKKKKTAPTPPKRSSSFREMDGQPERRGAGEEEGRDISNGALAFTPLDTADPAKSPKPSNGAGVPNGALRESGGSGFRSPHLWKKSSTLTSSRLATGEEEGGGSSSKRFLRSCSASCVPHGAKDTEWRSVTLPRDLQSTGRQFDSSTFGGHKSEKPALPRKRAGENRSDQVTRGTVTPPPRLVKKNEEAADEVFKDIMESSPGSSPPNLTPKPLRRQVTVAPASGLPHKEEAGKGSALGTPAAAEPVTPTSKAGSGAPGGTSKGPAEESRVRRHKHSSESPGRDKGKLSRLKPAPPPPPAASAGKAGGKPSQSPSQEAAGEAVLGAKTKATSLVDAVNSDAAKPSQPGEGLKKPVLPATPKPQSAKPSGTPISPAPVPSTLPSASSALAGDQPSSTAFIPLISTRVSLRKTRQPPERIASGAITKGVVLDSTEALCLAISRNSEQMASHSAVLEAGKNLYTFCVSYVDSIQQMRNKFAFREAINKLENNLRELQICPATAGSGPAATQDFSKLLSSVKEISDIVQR
Description: Actin was probed as protein loading control.
Western Blot analysis. […] Western blotting was performed using specific primary antibodies Peroxidase-conjugated affiniPure anti-Mouse Anti-Rabbit secondary antibodies (Jackson Immunoresearch Laboratories, West Grove, Pa.). The proteins were visualized with ECL Plus reagents (Amersham Biosciences).

[5] = tested on: CML cells expressing the T315I mutant BCR-ABL; test: Clonal outgrowth of CML cells from imatinib resistant patients; type: cell-based, human; details: cells of 2 patients that failed imatinib therapy
Description: Isolation of cellular fractions from clinical specimens. Mononuclear cells were isolated from peripheral blood or bone marrow of imatinib-resistant CML patients after informed consent was obtained for a protocol reviewed and approved by the Institutional Review Board of M.D. Anderson Cancer Center. Cells were purified on Ficoll-Hypaque gradients.

CCC[C@H](NC(=O)/C(C#N)=C/c1cccc(Br)n1)c1ccccc1 [Degrasyn]
Interaction with NPM [1]: interacts with NPM | c-myc protein content and c-myc RNA [2]: reduces c-myc protein content without effecting c-myc gene expression | c-myc protein, time course ([2]; 5 μM): caused a rapid reduction of c-myc protein | c-myc protein, concentration dependence ([2]; 1 h): caused a concentration dependent reduction in c-myc protein levels | c-myc protein levels ([2]; FIG. 21, 1 h): reduced c-myc protein levels | c-myc protein levels and Stat3 activation ([3]; then IL-6 10 ng/ml 15 min): reduced c-myc protein levels suppressed Stat3 activation at higher concentrations | Stat3, p-MAPK and p53 levels ([3]; then IL-6 15 min): not affected | pBCR-ABL and BCR-ABL protein levels, BV-173 [4]: reduced BCR-ABL protein levels in both w/t and mutant BCR-ABL expressing cells | Colony formation of leukemic cells [5]: more effective than imatinib in suppressing colony formation
